{
  "source": "patent US20120020923A1",
  "about": "“Method of treating viral diseases with combinations of TPO receptor agonist and anti-viral agents” (priority 2006, published 2012)",
  "system": "subjects with chronic hepatitis C virus (HCV) associated thrombocytopenia",
  "assay": "placebo controlled, double blind, dose-ranging study of Compound A before and with IFN and ribavirin",
  "assay_type": "in vivo, human",
  "conditions": "for Median platelet count at Week 4: 4 weeks",
  "protocol": "The safety, tolerability, efficacy and pharmacokinetics of repeat oral daily doses of 3′-{N′-[1-(3,4-Dimethylphenyl)-3-methyl-5-oxo-1,5-dihydropyrazol-4-ylidene]hydrazino}-2′-hydroxybiphenyl-3-carboxylic acid bis-(monoethanolamine);\n(hereinafter Compound A) in subjects with chronic hepatitis C virus (HCV) associated thrombocytopenia, which precluded initiation of treatment with pegylated interferon (IFN) and ribavirin is assessed in this study.\nHCV infected subjects with compensated cirrhosis and platelet counts between 20-70,000/ul were randomly allocated to 1 of 4 treatment groups (30, 50, 75 mg eltrombopag or placebo). During Part 1, Compound A was administered in tablet form once daily for 4 weeks. Subjects who achieved platelet counts of >70,000/ul at the end of Part 1 were eligible to enter Part 2, during which subjects initiated therapy with IFN and ribavirin and continued their randomized treatment for a maximum of 12 weeks. A follow-up visit was performed 4 weeks after last dose of study drug. The primary endpoint was defined as an increase in platelet count to 100,000/ul at Week 4.",
  "key": {"[1]": {"conditions": "range over the Compound A groups (30, 50, 75 mg)"}},
  "data": [
    {"smiles": "CC1=NN(c2ccc(C)c(C)c2)C(=O)C1=NNc1cccc(-c2cccc(C(=O)O)c2)c1O", "note": "[Compound A, 3′-{N′-[1-(3,4-Dimethylphenyl)-3-methyl-5-oxo-1,5-dihydropyrazol-4-ylidene]hydrazino}-2′-hydroxybiphenyl-3-carboxylic acid bis-(monoethanolamine)]", "values": [
      {"measurement": "Median platelet count at Week 4", "setting": "30 mg once daily oral", "result": 136500, "unit": "µL⁻¹"},
      {"measurement": "Median platelet count at Week 4", "setting": "50 mg once daily oral", "result": 213500, "unit": "µL⁻¹"},
      {"measurement": "Median platelet count at Week 4", "setting": "75 mg once daily oral", "result": 209000, "unit": "µL⁻¹"},
      {"measurement": "platelet counts at Day 28", "setting": "all treatment groups (30, 50, 75 mg)", "result": "increased platelet counts"},
      {"measurement": "subjects completing 12 weeks of antiviral therapy", "setting": "[1]", "result": "36-65%"},
      {"measurement": "subjects who completed 12 weeks of antiviral therapy", "setting": "[1]", "result": "5-15 subjects"}
    ]}
  ]
}
